Experiment [1] is described as follows: Chemoprevention index, ratio of IC50 for mouse Hepa-1c1c7 cells to drug level required to double specific NADPH:quinone reductase activity in mouse Hepa-1c1c7 cells. In kind it is functional.
The nature of experiment [2]: Cytotoxicity against mouse Hepa-1c1c7 cells. It is filed as cell-based.

Usually IC50 stands for the midpoint of a concentration-inhibition curve. As to `CCC/C=C/C(O)C#CC#C[C@@H](O)[C@H](C)O` (some centres undefined), the “Ratio IC50” value in experiment [1] was 14.77. The same compound showed an IC50 in experiment [2] of 422 µM.

For the compound `C=CCCCCC/C=C\C(O)C#CC#C[C@H](O)[C@H](C)O` (some centres undefined), the “Ratio IC50” value in experiment [1] came out at 18.39. In experiment [2], this compound had an IC50 of 252 µM.

Regarding `CCCCCCCCCC(O)CCCC[C@@H](O)[C@H](C)O` (some centres undefined), the IC50 in experiment [2] was greater than 500 µM.

`CCCCCC(O)C#CC#C[C@@H](O)[C@H](C)O` (relative stereo): the “Ratio IC50” value in experiment [1] was greater than 31.66. In addition, the IC50 in experiment [2] is greater than 500 µM.

For the compound `CCCCCCC(O)C#CC#C[C@@H](O)[C@H](C)O` (relative stereo), the “Ratio IC50” value in experiment [1] is given as 25.66. This compound returned an IC50 in experiment [2] of 223 µM.

Take `CC(C)=CC(O)C#CC#C[C@@H](O)[C@H](C)O` (relative stereo): in experiment [1], the “Ratio IC50” value is given as 17.02. The compound also yielded an IC50 in experiment [2] of 406 µM.

As to `C[C@H](O)[C@H](O)C#CC#CC(O)C1CCCCC1` (relative stereo), the “Ratio IC50” value in experiment [1] is greater than 3.8. For the same compound, in experiment [2], the IC50 was greater than 500 µM.

With `C[C@H](O)[C@H](O)C#CC#CC(O)c1ccccc1` (relative stereo), the “Ratio IC50” value in experiment [1] is given as greater than 13.57. This compound also had an IC50 in experiment [2] greater than 500 µM.

Consider `C[C@H](O)[C@H](O)C#CC#CC(O)Cc1ccccc1` (relative stereo), for which the “Ratio IC50” value in experiment [1] is on record as greater than 8.64. In experiment [2], the IC50 is greater than 500 µM.

With `CCCCCCCCCC(O)C#CC#C[C@H](O)[C@H](C)O` (relative stereo), the “Ratio IC50” value in experiment [1] amounted to 30.13. This compound returned an IC50 in experiment [2] of 64.2 µM.

Regarding `CCCCCC(O)C#CC#C[C@H](O)[C@H](C)O` (relative stereo), the “Ratio IC50” value in experiment [1] is greater than 38.6. The compound further returned a half-maximal inhibitory concentration (IC50) in experiment [2] greater than 500 µM.

For the compound `C=CCCCCC/C=C\C(O)C#CC#C[C@@H](O)[C@H](C)O` (relative stereo), the “Ratio IC50” value in experiment [1] is recorded as 10.51. In addition, the IC50 in experiment [2] came to 88.6 µM.

For `CCCCCCCCCC(O)C#CC#C[C@@H](O)[C@H](C)O` (relative stereo), the “Ratio IC50” value in experiment [1] turned out to be 7.44. This compound also yielded an IC50 in experiment [2] of 39.8 µM.

Take `C=CC(O)C#CC#C[C@@H](O)[C@H](C)O` (relative stereo): the “Ratio IC50” value in experiment [1] came to 1.12. Besides, it took 177 µM to reach half-maximal inhibition in experiment [2] (IC50).

On to `C=CCCCCC/C=C\[C@H](O)C#CC#CC1OC1C` (some centres undefined) [GYMNASTERKOREAYNE B], for which the “Ratio IC50” value in experiment [1] stood at 9.57. In experiment [2], this compound displayed an IC50 of 70.6 µM.

For the origin of these results see ChEMBL document CHEMBL1629429, “SAR studies of gymnasterkoreayne derivatives with cancer chemopreventive activities” (Bioorg Med Chem Lett, 2010).
